Test results: US20220009931A1, “NOVEL UREA 6,7-DIHYDRO-4H-PYRAZOLO[1,5-A]PYRAZINES ACTIVE AGAINST THE HEPATITIS B VIRUS (HBV)” (AICURIS GMBH & CO. KG, priority 2018, published 2022)

Tested on: HBV
Conditions: Hepatitis B virus, HePAD38, 144 h, read-out: Cell Activity

## O=C(Nc1ccc(F)c(Cl)c1)N1CCn2nc(N[C@H]3C[C@H](O)C3)cc2C1 [Example 36, N-(3-chloro-4-fluorophenyl)-2-{[(1r,3r)-3-hydroxycyclobutyl]amino}-4H,5H,6H,7H-pyrazolo[1,5-a]pyrazine-5-carboxamide]
  EC50: 1 to 10 µM
